# Results: US20080194646A1, “Methods For Avoiding Edema in the Treatment of Metabolic, Inflammatory, and Cardiovascular Disorders” (priority 2005, published 2008)
# Read-outs that look alike come from different tables or passages of the source.
# What was measured:
# C57BL/6j ob/ob Mice [1] = assay: anti-diabetic activity in C57BL/6j ob/ob mice (Example 13); assay type: in vivo; conditions: oral gavage once a day for 1-4 days; for Potency: glucose lowering, 5 to 125 mg/kg, plasma glucose 6 hours after each dose
# Procedure: The anti-diabetic activities of the compounds were evaluated in the C57BL/6j ob/ob Mice model.
# Male, 7-9 weeks old, C57BL/6J ob/ob mice were purchased from The Jackson Laboratory (Bar Harbor, Me., USA). Animals were housed (4-5 mice/cage) under standard laboratory conditions at 22±3° C. temperature and 50±20% relative humidity, and were maintained on a diet of Purina rodent chow and water ad libitum. Prior to treatment, blood was collected from the tail vein of each animal. Mice that had non-fasting plasma glucose levels between 250 and 500 mg/dl were used. Each treatment group consisted of 8-10 mice that were distributed so that the mean glucose levels were equivalent in each group at the start of the study. Mice were dosed orally by gavage once a day for 1-4 days with vehicle and one or more dose of test compound at a dose ranging from 5 to 125 mg/kg. Compounds were delivered in a liquid formulation containing 5% (v/v) dimethyl sulfoxide (DMSO), 1% (v/v) Tween 80® and 0.9% (w/v) methylcellulose. The gavage volume was 10 ml/kg. Blood samples were taken at 6 hours after the each dose and analyzed for plasma glucose. Food intake and body weight were measured daily. Plasma glucose concentrations were determined colorimetrically using a commercial glucose oxidase method (Sigma Chemical Co, St. Louis, Mo., USA). Significant difference between groups (comparing drug-treated to vehicle-treated) was evaluated using the Student unpaired t-test.
# The following table summarizes the anti-diabetic effects of selected compounds of the present invention and provides their relative potency. […] For example, a compound at 25 mg/kg that lowered the animal glucose level from 400 mg/dL (vehicle group value) to 250 mg/dL, is assigned the potency of +++.
# [2] = test system: type 2 diabetics with inadequate control on insulin; assay: two randomized, double-blind, placebo-controlled studies on type 2 diabetics with inadequate control on insulin; assay type: in vivo, human
# Text: Example 9 presents the results of two randomized, double-blind, placebo-controlled, multi-centre studies on type 2 diabetics with inadequate control on insulin. […] Both studies were about 4 months long, with a stabilization/run in period for 2 to 4 weeks and a 3 month treatment period. Endpoints included fasting plasma glucose (FPG), HbA1c, weight, and the incidence of edema.
# monkeys = assay: separate animal studies, heart weight and fluid accumulation (monkeys); assay type: in vivo; conditions: therapeutically relevant doses, data not shown
# [3] = test system: human subjects also receiving glyburide; assay: 14 days of treatment in human subjects also receiving glyburide; assay type: in vivo
# Text: The data for pioglitazone (Actos) is taken from Goldberg R B et al., Diabetes Care 28(7):1547-54 (2005), which is incorporated herein by reference.
# rats = assay: separate animal studies, heart weight and fluid accumulation (rats); assay type: in vivo; conditions: therapeutically relevant doses, data not shown
# PPARγ = biological target: T1, PPARγ (Homo sapiens, UniProt P37231); assay: PPARγ partial agonism (Example 8, FIG. 6); assay type: cell-based
# T1 sequence (P37231 1-505): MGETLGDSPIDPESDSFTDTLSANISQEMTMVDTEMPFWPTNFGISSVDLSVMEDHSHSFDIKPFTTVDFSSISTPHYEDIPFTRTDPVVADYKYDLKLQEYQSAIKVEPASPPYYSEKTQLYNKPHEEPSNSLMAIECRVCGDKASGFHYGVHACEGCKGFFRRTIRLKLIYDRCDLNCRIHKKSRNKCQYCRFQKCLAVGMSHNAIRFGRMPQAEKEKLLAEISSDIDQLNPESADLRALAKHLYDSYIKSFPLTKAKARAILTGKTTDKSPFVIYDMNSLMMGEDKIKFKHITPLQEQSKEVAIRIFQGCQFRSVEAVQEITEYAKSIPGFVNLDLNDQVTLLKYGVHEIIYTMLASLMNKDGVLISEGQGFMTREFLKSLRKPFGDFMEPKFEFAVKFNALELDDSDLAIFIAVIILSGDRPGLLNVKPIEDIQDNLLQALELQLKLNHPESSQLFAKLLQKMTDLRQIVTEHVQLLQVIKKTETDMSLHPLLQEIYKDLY
# cytochrome P450 2C9 = cytochrome P450 2C9 (Homo sapiens, UniProt P11712); conditions: comparison of enantiomers and racemate, cited from earlier work
# Chain of cytochrome P450 2C9 (P11712 whole entry): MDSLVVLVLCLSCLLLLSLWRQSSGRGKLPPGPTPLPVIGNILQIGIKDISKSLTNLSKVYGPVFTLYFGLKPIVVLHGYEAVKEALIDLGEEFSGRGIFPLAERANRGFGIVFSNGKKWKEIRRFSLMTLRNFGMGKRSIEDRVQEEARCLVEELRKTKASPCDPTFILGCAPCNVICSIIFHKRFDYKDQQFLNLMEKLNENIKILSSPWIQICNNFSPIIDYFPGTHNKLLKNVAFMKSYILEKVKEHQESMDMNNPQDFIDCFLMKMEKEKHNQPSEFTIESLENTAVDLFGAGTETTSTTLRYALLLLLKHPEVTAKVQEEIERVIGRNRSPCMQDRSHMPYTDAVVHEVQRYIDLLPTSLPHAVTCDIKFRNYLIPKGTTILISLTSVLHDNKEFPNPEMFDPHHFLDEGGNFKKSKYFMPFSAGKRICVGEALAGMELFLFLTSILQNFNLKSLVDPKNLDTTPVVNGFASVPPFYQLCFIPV
# C57BL/6j ob/ob Mice [4] = assay: glucose lowering activity of halofenate analogs in ob/ob mice (Example 14); assay type: in vivo; conditions: 125 mg/kg oral gavage once a day for 1-3 days; Student unpaired t-test
# Procedure: Male, 8-9 weeks old, C57BL/6J ob/ob mice were purchased from The Jackson Laboratory (Bar Harbor, Me., USA). Animals were housed (4-5 mice/cage) under standard laboratory conditions at 22±3° C. temperature and 50±20% relative humidity, and were maintained on a diet of Purina rodent chow and water ad libitum. Prior to treatment, blood was collected from the tail vein of each animal. Mice that had non-fasting plasma glucose levels between 250 and 500 mg/dl were used. Each treatment group consisted of 8-10 mice that were distributed so that the mean glucose levels were equivalent in each group at the start of the study. Mice were dosed orally by gavage once a day for 1-3 days with either vehicle, (−) halofenic acid, (+) analog 14, 29, 33, 34, 35, 36, 37, or 38 at 125 mg/kg or (−) analog 29, 36, 37 or 38 at 150 mg/kg. Compounds were delivered in a liquid formulation containing 5% (v/v) dimethyl sulfoxide (DMSO), 1% (v/v) tween 80 and 0.9% (w/v) methylcellulose. The gavage volume was 10 ml/kg. Blood samples were taken at 6 hours after the each dose and analyzed for plasma glucose. Food intake and body weight were measured daily. Plasma glucose concentrations were determined colorimetrically using glucose oxidase method (Sigma Chemical Co, St. Louis, Mo., USA). Significant difference between groups (comparing drug-treated to vehicle-treated) was evaluated using the Student unpaired t-test.
compound,measurement,setting,value
O=C(O)C(Oc1ccc(Cl)cc1-c1nc2ccccc2o1)c1cccc(Cl)c1 (centres unmarked) [Compound I-194],Potency,C57BL/6j ob/ob Mice [1],+++ (effective for glucose lowering at a dose of ≦25 mg/kg)
same,Insulin Level compared with vehicle,C57BL/6j ob/ob Mice [1],Lower
O=C(O)C(Oc1ccccc1-c1nc2ccccc2o1)c1ccc(Cl)cc1 (centres unmarked) [Compound I-1],Potency,C57BL/6j ob/ob Mice [1],++ (effective for glucose lowering at a dose of >25 mg/kg but <125 mg/kg)
same,Insulin Level compared with vehicle,C57BL/6j ob/ob Mice [1],Lower
CC(Oc1ccc(C(F)(F)F)cc1-c1nc2ccccc2o1)(C(=O)O)c1ccccc1 (centres unmarked) [Ia-365],Potency,C57BL/6j ob/ob Mice [1],+++ (effective for glucose lowering at a dose of ≦25 mg/kg)
same,Insulin Level compared with vehicle,C57BL/6j ob/ob Mice [1],Lower
O=C(O)C(Oc1ccc(C(F)(F)F)cc1-c1nc2ccccc2o1)c1ccc(Cl)cc1 (centres unmarked) [Compound I-372],Potency,C57BL/6j ob/ob Mice [1],+++ (effective for glucose lowering at a dose of ≦25 mg/kg)
same,Insulin Level compared with vehicle,C57BL/6j ob/ob Mice [1],Lower
"CC(=O)NCCOC(=O)C(Oc1cccc(C(F)(F)F)c1)c1ccc(Cl)cc1 (single isomer, unassigned; (-)) [(−) halofenate, (−) 2-acetamidoethyl 4-chlorophenyl-(3-trifluoromethylphenoxy)acetate]","adverse effects on selected parameters: upper GI tract, liver, blood, kidney","[2]; additional analyses, data not shown",not associated with an excess of adverse effects
same,serum triglycerides,"[2]; additional results, data not shown",lowered serum triglycerides substantially
same,incidence of edema formation compared to combined placebo groups,"[2]; both studies, dose range 200- to 600 mg (FIG. 17)",did not increase the incidence of edema formation
same,Discontinued due to AE,"[2]; first study, 200 mg group",3 (4.1%)
same,Discontinued due to AE,"[2]; first study, 400 mg group",3 (4.3%)
same,plasma glucose levels as judged by HbA1c compared to placebo,"[2]; first study, 200- and 400 mg (FIG. 8)",lowered plasma glucose levels as judged by HbA1c levels
same,edema formation compared to placebo,"[2]; first study, 200- and 400 mg (FIG. 9)",prevented edema formation
same,weight gain compared to placebo,"[2]; first study, 200- and 400 mg (FIG. 10)",did not induce weight gain
same,fasting plasma glucose levels compared to placebo,"[2]; first study, 200- and 400 mg, 3 month treatment (FIG. 7)",lowered fasting plasma glucose levels
same,plasma glucose levels as judged by HbA1c compared to placebo,"[2]; first study, 200- and 400 mg, sites 60 and 70 removed (FIG. 15)",lowered plasma glucose levels as judged by HbA1c levels
same,fasting plasma glucose levels compared to placebo,"[2]; first study, 200- and 400 mg, sites 60 and 70 removed (FIG. 16)",lowered fasting plasma glucose levels
same,fasting plasma glucose levels compared to placebo,"[2]; second study, 600 mg (FIG. 11)",lowered fasting plasma glucose levels
same,weight gain compared to placebo,"[2]; second study, 600 mg (FIG. 18)",did not induce weight gain
same,plasma glucose levels as judged by HbA1c,"[2]; second study, 600 mg, all sites, placebo group demonstrated a comparable response (FIG. 12)",lowered plasma glucose levels as judged by HbA1c levels in the experimental group substantially from baseline
same,plasma glucose levels as judged by HbA1c compared to placebo,"[2]; second study, 600 mg, sites 60 and 70 removed (FIG. 13)",lowered plasma glucose levels as judged by HbA1c levels
same,fasting plasma glucose levels compared to placebo,"[2]; second study, 600 mg, sites 60 and 70 removed (FIG. 14)",lowered fasting plasma glucose levels
same,heart weight or fluid accumulation,monkeys,did not cause increases at therapeutically relevant doses in heart weight or fluid accumulation
same,hsCRP levels,"[3]; human patients, 14 days of treatment, dose dependent (FIG. 20)",lower hsCRP levels
same,blood glucose levels,"[3]; patients also receiving glyburide, 14 days of treatment (FIG. 19)",substantially lower blood glucose levels
same,heart weight or fluid accumulation,rats,did not cause increases at therapeutically relevant doses in heart weight or fluid accumulation
same,ability to induce PPARγ expression,PPARγ,a few fold
same,antagonism of the agonist activity of rosiglitazone,PPARγ,significantly antagonizing the agonist activity of rosiglitazone
O=C(O)C(Oc1ccccc1-c1nc2ccccc2o1)c1cccc(C(F)(F)F)c1 (centres unmarked) [Compound I-3],Potency,C57BL/6j ob/ob Mice [1],+ (effective for glucose lowering at the dose of ≧125 mg/kg)
same,Insulin Level compared with vehicle,C57BL/6j ob/ob Mice [1],Lower
"O=C(O)C(Oc1cccc(C(F)(F)F)c1)c1ccc(Cl)cc1 (racemic) [racemic halofenic acid, 4-Chlorophenyl-(3-trifluoromethylphenoxy)-acetic Acid]",inhibition of cytochrome P450 2C9,cytochrome P450 2C9,found to inhibit cytochrome P450 2C9
"O=C(O)C(Oc1cccc(C(F)(F)F)c1)c1ccc(Cl)cc1 (single isomer, unassigned; (-)) [(−)halofenic acid, (−) (3-trifluoromethylphenoxy) (4-chlorophenyl)acetic acid]",inhibition of cytochrome P450 2C9,cytochrome P450 2C9; listed as (−) enantiomer of halofenic acid,about twenty-fold less active
same,plasma glucose concentrations vs vehicle,C57BL/6j ob/ob Mice [4],significantly reduced plasma glucose concentrations at 6 hours
O=C(O)C(Oc1ccc(Cl)cc1-c1nc2ccccc2o1)c1cccc(C(F)(F)F)c1 (centres unmarked) [Compound I-191],Potency,C57BL/6j ob/ob Mice [1],+++ (effective for glucose lowering at a dose of ≦25 mg/kg)
same,Insulin Level compared with vehicle,C57BL/6j ob/ob Mice [1],Lower
O=C(O)C(Oc1ccc(Cl)cc1-c1nc2ccccc2o1)c1ccc(Cl)cc1 (centres unmarked) [Compound I-190],Potency,C57BL/6j ob/ob Mice [1],+++ (effective for glucose lowering at a dose of ≦25 mg/kg)
same,Insulin Level compared with vehicle,C57BL/6j ob/ob Mice [1],Lower
"O=C(O)C(Oc1cccc(C(F)(F)F)c1)c1ccc(Cl)cc1 (single isomer, unassigned; (+)) [(+) enantiomer of halofenic acid, (+) 4-chlorophenyl-(3-trifluoromethylphenoxy)-acetic acid]",inhibition of cytochrome P450 2C9,cytochrome P450 2C9,quite potent
CC(Oc1ccc(C(F)(F)F)cc1-c1nc2ccccc2o1)(C(=O)O)c1ccccc1 (centres unmarked) [Ia-366],Potency,C57BL/6j ob/ob Mice [1],+++ (effective for glucose lowering at a dose of ≦25 mg/kg)
O=C(O)C(Oc1ccc(C(F)(F)F)cc1-c1nc2ccccc2o1)c1ccccc1 (centres unmarked) [Compound I-369],Potency,C57BL/6j ob/ob Mice [1],+++ (effective for glucose lowering at a dose of ≦25 mg/kg)
same,Insulin Level compared with vehicle,C57BL/6j ob/ob Mice [1],Lower
COc1ccc(C(Oc2ccc(Cl)cc2-c2nc3ccccc3o2)C(=O)O)cc1 (centres unmarked) [Compound I-193],Potency,C57BL/6j ob/ob Mice [1],+++ (effective for glucose lowering at a dose of ≦25 mg/kg)
same,Insulin Level compared with vehicle,C57BL/6j ob/ob Mice [1],Lower
O=C(O)C(Oc1ccc(C(F)(F)F)cc1-c1nc2ccccc2o1)c1cccc(C(F)(F)F)c1 (centres unmarked) [Compound I-89],Potency,C57BL/6j ob/ob Mice [1],+++ (effective for glucose lowering at a dose of ≦25 mg/kg)
same,Insulin Level compared with vehicle,C57BL/6j ob/ob Mice [1],Lower
